Reference: patent publication US8691804B2 (Evotec AG, priority 2008, dated 2014)

Target: T1, human H3 receptors (Homo sapiens, UniProt Q9Y5N1)
T1 construct: host or cells: CHO-K1
Experiment: cAMP quantification assay for human H3 receptor testing
Format: cell-based
Details: CHO-K1 cells expressing human H3 receptors; inhibition of agonist-induced decrease of cAMP; 100 nM histamine, 10 μM forskolin; read-out: Potency range (IC50 values)
Protocol: CHO—K1 cell line expressing human H3 receptors were purchased from Euroscreen (Gosselies, Belgium, Cat. no.: ES-392-C)
Human H3 receptor-expressing cell-lines were grown in Ham's F12 [Sigma, Cat. no. N6658], supplemented with 10% FBS [Sigma, Cat. no. F9665], 400 μg/ml G418 [Sigma, Cat. no. N1876] and 250 μg/ml Zeocin [Invitrogen, Cat. no. 46-0509]) according to the protocol provided by Euroscreen.
The assay measures the ability of test compounds to inhibit Histamine receptor agonist-induced decrease of intracellular free cAMP (receptor is Gi coupled).
Specifically, a cAMP quantification assay system from DiscoveRx (cAMP XS+; Cat. no. 90-0075) was used.
For the cAMP assay, confluent cells were detached from the culture vessels with 1× trypsin-EDTA solution (Sigma), and seeded into 384-well Costar plates (white, clear bottom, Cat. no. 3707) at a density of 10,000 cells per well. Cells were seeded in a volume of 50 μl in medium without antibiotics and incubated overnight in a humidified atmosphere with 5% CO2 at 37° C. The cAMP assay was performed according to the protocol provided by DiscoveRx.
The cell culture medium was removed and the cells washed once with PBS (50 μl per well). The plates were emptied by inversion and 7.5 μl/well of compound in PBS (containing 1 mM IBMX and 0.03% BSA) were added and incubated for 30 min at 37° C.
Subsequent 7.5 μl/well specific agonist solution was added and the plates for another 30 min incubated at 37° C.
hH3:100 nM histamine, 10 μM forskolin in PBS (containing 1 mM IBMX and 0.03% BSA)
After the incubation with the agonist, 5 μl/well cAMP XS antibody solution was added followed by 20 μl/well Gal/EII/Lysis (1:5:19)+ED (1:1). The plates were incubated for one hour at room temperature and afterwards 20 μl/well EA reagent was added. The luminescence was developed for approximately three hours at room temperature and the plates were read out using a ‘BMG Novostar’ plate reader.
Test compounds were assayed at 8 concentrations in triplicate. Serial 10-fold dilutions in 100% DMSO were made at a 100-times higher concentration than the final concentration and then diluted with a 2 step protocol in assay buffer to reach the required assay concentrations and 1% DMSO. […]

T1 sequence (Q9Y5N1 whole entry): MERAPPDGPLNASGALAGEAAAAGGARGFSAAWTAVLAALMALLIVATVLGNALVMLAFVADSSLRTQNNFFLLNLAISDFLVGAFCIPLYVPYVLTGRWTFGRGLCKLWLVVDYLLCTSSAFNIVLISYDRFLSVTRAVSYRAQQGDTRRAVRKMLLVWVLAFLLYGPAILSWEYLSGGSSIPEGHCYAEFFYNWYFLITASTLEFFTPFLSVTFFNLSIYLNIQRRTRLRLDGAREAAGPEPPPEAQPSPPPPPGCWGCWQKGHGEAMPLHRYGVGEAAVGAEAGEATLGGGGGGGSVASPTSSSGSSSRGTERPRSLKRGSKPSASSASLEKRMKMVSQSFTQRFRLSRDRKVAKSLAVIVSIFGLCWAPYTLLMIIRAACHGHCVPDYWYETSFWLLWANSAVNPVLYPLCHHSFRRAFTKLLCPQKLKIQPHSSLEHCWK

| IC50 [nM] | Compound |
| --- | --- |
| < 100 | O=C(N1CCCN(C2CCC2)CC1)N1CC(O)C1 [Example 1, 1-[(4-cyclobutyl-1,4-diazepan-1-yl)carbonyl]azetidin-3-ol] |
| 500 to 5000 | O=C(N1CCN(C2CCC2)CC1)N1CC(O)C1 [Example 2, 1-[(4-cyclobutylpiperazin-1-yl)carbonyl]azetidin-3-ol] |
| < 100 | CNC(=O)c1ccc(OC2CN(C(=O)N3CCCN(C4CCC4)CC3)C2)nc1 [Example 3, 6-({1-[(4-cyclobutyl-1,4-diazepan-1-yl)carbonyl]azetidin-3-yl}oxy)-N-methylpyridine-3-carboxamide] |
| < 100 | NC(=O)c1ccc(OC2CN(C(=O)N3CCCN(C4CCC4)CC3)C2)cn1 [Example 4, 5-({1-[(4-cyclobutyl-1,4-diazepan-1-yl)carbonyl]azetidin-3-yl}oxy)pyridine-2-carboxamide] |
| < 100 | CNC(=O)c1ccc(OC2CN(C(=O)N3CCCN(C4CCC4)CC3)C2)cn1 [Example 5, 5-({1-[(4-cyclobutyl-1,4-diazepan-1-yl)carbonyl]azetidin-3-yl}oxy)-N-methylpyridine-2-carboxamide] |
| < 100 | CN(C)C(=O)c1ccc(OC2CN(C(=O)N3CCCN(C4CCC4)CC3)C2)cn1 [Example 6, 5-({1-[(4-cyclobutyl-1,4-diazepan-1-yl)carbonyl]azetidin-3-yl}oxy)-N,N-dimethylpyridine-2-carboxamide] |
| < 100 | CCN(CC)C(=O)c1ccc(OC2CN(C(=O)N3CCCN(C4CCC4)CC3)C2)cn1 [Example 7, 5-({1-[(4-cyclobutyl-1,4-diazepan-1-yl)carbonyl]azetidin-3-yl}oxy)-N,N-diethylpyridine-2-carboxamide] |
| < 100 | CNC(=O)c1ccc(OC2CN(C(=O)N3CCCN(C4CCC4)CC3)C2)cc1 [Example 8, 4-({1-[(4-cyclobutyl-1,4-diazepan-1-yl)carbonyl]azetidin-3-yl}oxy)-N-methylbenzamide] |
| < 100 | CN(C)C(=O)c1ccc(OC2CN(C(=O)N3CCCN(C4CCC4)CC3)C2)cc1 [Example 9, 4-({1-[(4-cyclobutyl-1,4-diazepan-1-yl)carbonyl]azetidin-3-yl}oxy)-N,N-dimethylbenzamide] |
| < 100 | O=C(N1CCCN(C2CCC2)CC1)N1CC(Oc2ccc(C(F)(F)F)cc2)C1 [Example 10, 1-cyclobutyl-4-({3-[4-(trifluoromethyl)phenoxy]azetidin-1-yl}carbonyl)-1,4-diazepane] |
| < 100 | O=C(N1CCCN(C2CCC2)CC1)N1CC(Oc2ccc(C(F)(F)F)cn2)C1 [Example 11, 1-cyclobutyl-4-[(3-{[5-(trifluoromethyl)pyridin-2-yl]oxy}azetidin-1-yl)carbonyl]-1,4-diazepane] |
| < 100 | N#Cc1ccc(OC2CN(C(=O)N3CCCN(C4CCC4)CC3)C2)cc1 [Example 12, 4-({1-[(4-cyclobutyl-1,4-diazepan-1-yl)carbonyl]azetidin-3-yl}oxy)benzonitrile] |
| < 100 | O=C(N1CCCN(C2CCC2)CC1)N1CC(Oc2ccc(F)cc2)C1 [Example 13, 1-cyclobutyl-4-{[3-(4-fluorophenoxy)azetidin-1-yl]carbonyl}-1,4-diazepane] |
| < 100 | O=C(N1CCCN(C2CCC2)CC1)N1CC(Oc2ccc(Cl)cc2)C1 [Example 14, 1-{[3-(4-chlorophenoxy)azetidin-1-yl]carbonyl}-4-cyclobutyl-1,4-diazepane] |
| < 100 | O=C(N1CCCN(C2CCC2)CC1)N1CC(Oc2ccccc2)C1 [Example 15, 1-cyclobutyl-4-[(3-phenoxyazetidin-1-yl)carbonyl]-1,4-diazepane] |
| < 100 | O=C(N1CCCN(C2CCC2)CC1)N1CC(Oc2ccc(Cn3cccn3)cc2)C1 [Example 16, 1-cyclobutyl-4-({3-[4-(1H-pyrazol-1-ylmethyl)phenoxy]azetidin-1-yl}carbonyl)-1,4-diazepane] |
| < 100 | O=C(N1CCCN(C2CCC2)CC1)N1CC(Oc2ccc(Cn3cccn3)cn2)C1 [Example 17, 1-cyclobutyl-4-[(3-{[5-(1H-pyrazol-1-ylmethyl)pyridin-2-yl]oxy}azetidin-1-yl)carbonyl]-1,4-diazepane] |
| < 100 | O=C(N1CCCN(C2CCC2)CC1)N1CC(Oc2ccc(N3CCCC3=O)cc2)C1 [Example 18, 1-[4-({1-[(4-cyclobutyl-1,4-diazepan-1-yl)carbonyl]azetidin-3-yl}oxy)phenyl]pyrrolidin-2-one] |

| IC50 [nM] | Compound |
| --- | --- |
| < 100 | O=C(N1CCCN(C2CCC2)CC1)N1CC(Oc2ccc(CN3CCCCC3)cc2)C1 [Example 19, 1-cyclobutyl-4-({3-[4-(piperidin-1-ylmethyl)phenoxy]azetidin-1-yl}carbonyl)-1,4-diazepane] |
| < 100 | CN1CCN(Cc2ccc(OC3CN(C(=O)N4CCCN(C5CCC5)CC4)C3)cc2)CC1 [Example 20, 1-cyclobutyl-4-[(3-{4-[(4-methylpiperazin-1-yl)methyl]phenoxy}azetidin-1-yl)carbonyl]-1,4-diazepane] |
| < 100 | O=C(N1CCCN(C2CCC2)CC1)N1CC(Oc2ccc(CN3CCC(F)(F)CC3)cc2)C1 [Example 21, 1-cyclobutyl-4-[(3-{4-[(4,4-difluoropiperidin-1-yl)methyl]phenoxy}azetidin-1-yl)carbonyl]-1,4-diazepane] |
| < 100 | O=C(N1CCCN(C2CCC2)CC1)N1CC(Oc2ccc(Br)cn2)C1 [Example 22, 1-({3-[(5-bromopyridin-2-yl)oxy]azetidin-1-yl}carbonyl)-4-cyclobutyl-1,4-diazepane] |
| < 100 | O=C(N1CCCN(C2CCC2)CC1)N1CC(Oc2ccc(Cl)c(Cl)c2)C1 [Example 23, 1-cyclobutyl-4-{[3-(3,4-dichlorophenoxy)azetidin-1-yl]carbonyl}-1,4-diazepane] |
| < 100 | O=C(N1CCCN(C2CCC2)CC1)N1CC(Oc2ccc(Br)nc2)C1 [Example 24, 1-({3-[(6-bromopyridin-3-yl)oxy]azetidin-1-yl}carbonyl)-4-cyclobutyl-1,4-diazepane] |
| < 100 | Cc1cc(Cl)ccc1OC1CN(C(=O)N2CCCN(C3CCC3)CC2)C1 [Example 25, 1-{[3-(4-chloro-2-methylphenoxy)azetidin-1-yl]carbonyl}-4-cyclobutyl-1,4-diazepane] |
| < 100 | O=C(N1CCCN(C2CCC2)CC1)N1CC(Oc2ccc(-n3ccnc3)cc2)C1 [Example 26, 1-cyclobutyl-4-({3-[4-(1H-imidazol-1-yl)phenoxy]azetidin-1-yl}carbonyl)-1,4-diazepane] |
| < 100 | Cc1cc(OC2CN(C(=O)N3CCCN(C4CCC4)CC3)C2)ccn1 [Example 27, 1-cyclobutyl-4-({3-[(2-methylpyridin-4-yl)oxy]azetidin-1-yl}carbonyl)-1,4-diazepane] |
| < 100 | O=C(N1CCCN(C2CCC2)CC1)N1CC(Oc2cccc(C(F)(F)F)c2)C1 [Example 28, 1-cyclobutyl-4-({3-[3-(trifluoromethyl)phenoxy]azetidin-1-yl}carbonyl)-1,4-diazepane] |
| < 100 | O=C(N1CCCN(C2CCC2)CC1)N1CC(Oc2ccccc2C(F)(F)F)C1 [Example 29, 1-cyclobutyl-4-({3-[2-(trifluoromethyl)phenoxy]azetidin-1-yl}carbonyl)-1,4-diazepane] |
| < 100 | N#Cc1cccc(OC2CN(C(=O)N3CCCN(C4CCC4)CC3)C2)c1 [Example 30, 3-({1-[(4-cyclobutyl-1,4-diazepan-1-yl)carbonyl]azetidin-3-yl}oxy)benzonitrile] |
| < 100 | N#Cc1ccccc1OC1CN(C(=O)N2CCCN(C3CCC3)CC2)C1 [Example 31, 2-({1-[(4-cyclobutyl-1,4-diazepan-1-yl)carbonyl]azetidin-3-yl}oxy)benzonitrile] |
| < 100 | O=C(N1CCCN(C2CCC2)CC1)N1CC(Oc2cccc(Cl)c2)C1 [Example 32, 1-{[3-(3-chlorophenoxy)azetidin-1-yl]carbonyl}-4-cyclobutyl-1,4-diazepane] |
| < 100 | O=C(N1CCCN(C2CCC2)CC1)N1CC(Oc2ccccc2Cl)C1 [Example 33, 1-{[3-(2-chlorophenoxy)azetidin-1-yl]carbonyl}-4-cyclobutyl-1,4-diazepane] |
| < 100 | CNC(=O)c1ccc(OC2CN(C(=O)N3CCCN(C4CCC4)CC3)C2)c(C)c1 [Example 34, 4-({1-[(4-cyclobutyl-1,4-diazepan-1-yl)carbonyl]azetidin-3-yl}oxy)-N,3-dimethylbenzamide] |
| < 100 | O=C(NCC1CC1)c1ccc(OC2CN(C(=O)N3CCCN(C4CCC4)CC3)C2)cn1 [Example 35, 5-({1-[(4-cyclobutyl-1,4-diazepan-1-yl)carbonyl]azetidin-3-yl}oxy)-N-(cyclopropylmethyl)pyridine-2-carboxamide] |
